Reference: patent US8247211B2, “Glycopeptide antibiotics” (American Cyanamid Company, priority 2001, dated 2012)

Key:
Assay in all cases: In vitro antibacterial evaluation: minimum inhibitory concentration (MIC), broth dilution method
Format in all cases: cell-based
Conditions in all cases: 18 hours at 35° C.
Streptococcus sp. = system: Streptococcus sp.
In short: (§1)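 Test strains, among them recent clinical isolates carrying methicillin, penicillin and/or vancomycin resistance, were inoculated at 5×10^5 CFU/mL. A broth dilution series spanning 64-0.06 μg/mL in Muller-Hinton II […] (NCCLS M7-A2) defined the MIC as the lowest growth-inhibiting concentration.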

Escherichia coli = system: Escherichia coli
In short: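 NCCLS M7-A2 broth dilution; Muller-Hinton II […]; 5×10^5 CFU/mL; 64-0.06 μg/mL. MIC = lowest concentration with no growth.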

Staphylococcus sp. = system: Staphylococcus sp.
In short: as §1

Enterococcus sp. = system: Enterococcus sp.
In short: as §1

[1] = Streptococcus agalactiae (GC 4564)
[2] = Streptococcus pneumoniae (GC 4565)
[3] = Streptococcus pyogenes (ID-3187)
[4] = Coagulase Negative Staphylococcus (GC 4547)
[5] = Coagulase Negative Staphylococcus (GC 4548)
[6] = Coagulase Negative Staphylococcus (GC 4549)
[7] = Coagulase Negative Staphylococcus (GC 4551)
[8] = Coagulase Negative Staphylococcus (ID-3941)
[9] = Staphylococcus aureus (ATCC 29213)
[10] = Staphylococcus aureus (GC 1131)
[11] = Staphylococcus aureus (GC 4541)
[12] = Staphylococcus aureus (GC 4542)
[13] = Staphylococcus aureus (GC 4544)
[14] = Staphylococcus aureus (GC 4545)
[15] = Staphylococcus aureus-SMITH (GC 4543)
[16] = Staphylococcus haemolyticus (GC 4546)
[17] = broth dilution, strain ATCC 29213
[18] = Enterococcus faecalis (ATCC 29212)
[19] = Enterococcus faecalis (GC 2242)
[20] = Enterococcus faecalis (GC 4552)
[21] = Enterococcus faecalis (GC 4553)
[22] = Enterococcus faecalis (GC 4554)
[23] = broth dilution, strain ATCC 29212

β-O-[(Pentylamino)carbonyl]-cyclo[glycyl-β-methylphenylalanyl-O-(4-O-hexopyranosylhexopyranosyl)tyrosyl-3-(2-iminoimidazolidin-4-yl)seryl-3-(3-hexopyranosyl-2-iminoimidazolidin-4-yl)serylseryl] [Example 251a]
MIC Streptococcus agalactiae (GC 4564) (Streptococcus sp.; [1]): 32 µg/mL | MIC Streptococcus pneumoniae (GC 4565) (Streptococcus sp.; [2]): 8 µg/mL | MIC Streptococcus pyogenes (ID-3187) (Streptococcus sp.; [3]): 16 µg/mL | MIC Streptococcus agalactiae (GC 4564) (Streptococcus sp.; broth dilution, strain GC 4564): 32 µg/mL | MIC Streptococcus pneumoniae (GC 4565) (Streptococcus sp.; broth dilution, strain GC 4565): 8 µg/mL | MIC Streptococcus pyogenes (ID-3187) (Streptococcus sp.; broth dilution, strain ID-3187): 16 µg/mL | MIC Escherichia coli (ATCC 25922) (Escherichia coli): >64 µg/mL | MIC Escherichia coli (GC 4559) (Escherichia coli): >64 µg/mL | MIC Escherichia coli (GC 4560) (Escherichia coli): 8 µg/mL | MIC Coagulase Negative Staphylococcus (GC 4547) (Staphylococcus sp.; [4]): 64 µg/mL | MIC Coagulase Negative Staphylococcus (GC 4548) (Staphylococcus sp.; [5]): 64 µg/mL | MIC Coagulase Negative Staphylococcus (GC 4549) (Staphylococcus sp.; [6]): 32 µg/mL | MIC Coagulase Negative Staphylococcus (GC 4551) (Staphylococcus sp.; [7]): >64 µg/mL | MIC Coagulase Negative Staphylococcus (ID-3941) (Staphylococcus sp.; [8]): 16 µg/mL | MIC Staphylococcus aureus (ATCC 29213) (Staphylococcus sp.; [9]): >64 µg/mL | MIC Staphylococcus aureus (GC 1131) (Staphylococcus sp.; [10]): >64 µg/mL | MIC Staphylococcus aureus (GC 4541) (Staphylococcus sp.; [11]): 64 µg/mL | MIC Staphylococcus aureus (GC 4542) (Staphylococcus sp.; [12]): 64 µg/mL | MIC Staphylococcus aureus (GC 4544) (Staphylococcus sp.; [13]): >64 µg/mL | MIC Staphylococcus aureus (GC 4545) (Staphylococcus sp.; [14]): 64 µg/mL | MIC Staphylococcus aureus-SMITH (GC 4543) (Staphylococcus sp.; [15]): 64 µg/mL | MIC Staphylococcus haemolyticus (GC 4546) (Staphylococcus sp.; [16]): 64 µg/mL | MIC Staphylococcus aureus (ATCC 29213) (Staphylococcus sp.; [17]): >64 µg/mL | MIC Staphylococcus aureus (GC 1131) (Staphylococcus sp.; broth dilution, strain GC 1131): >64 µg/mL | MIC Staphylococcus aureus (GC 4541) (Staphylococcus sp.; broth dilution, strain GC 4541): 64 µg/mL | MIC Staphylococcus aureus (GC 4542) (Staphylococcus sp.; broth dilution, strain GC 4542): 64 µg/mL | MIC Staphylococcus aureus-SMITH (GC 4543) (Staphylococcus sp.; broth dilution, strain GC 4543): 64 µg/mL | MIC Staphylococcus aureus (GC 4544) (Staphylococcus sp.; broth dilution, strain GC 4544): >64 µg/mL | MIC Staphylococcus aureus (GC 4545) (Staphylococcus sp.; broth dilution, strain GC 4545): 64 µg/mL | MIC Staphylococcus haemolyticus (GC 4546) (Staphylococcus sp.; broth dilution, strain GC 4546): 64 µg/mL | MIC Coagulase Negative Staphylococcus (GC 4547) (Staphylococcus sp.; broth dilution, strain GC 4547): 64 µg/mL | MIC Coagulase Negative Staphylococcus (GC 4548) (Staphylococcus sp.; broth dilution, strain GC 4548): 64 µg/mL | MIC Coagulase Negative Staphylococcus (GC 4549) (Staphylococcus sp.; broth dilution, strain GC 4549): 32 µg/mL | MIC Coagulase Negative Staphylococcus (GC 4551) (Staphylococcus sp.; broth dilution, strain GC 4551): >64 µg/mL | MIC Coagulase Negative Staphylococcus (ID-3941) (Staphylococcus sp.; broth dilution, strain ID-3941): 16 µg/mL | MIC Enterococcus avium (GC 4558) (Enterococcus sp.; Enterococcus avium (GC 4558)): >64 µg/mL | MIC Enterococcus faecalis (ATCC 29212) (Enterococcus sp.; [18]): >64 µg/mL | MIC Enterococcus faecalis (GC 2242) (Enterococcus sp.; [19]): >64 µg/mL | MIC Enterococcus faecalis (GC 4552) (Enterococcus sp.; [20]): >64 µg/mL | MIC Enterococcus faecalis (GC 4553) (Enterococcus sp.; [21]): >64 µg/mL | MIC Enterococcus faecalis (GC 4554) (Enterococcus sp.; [22]): >64 µg/mL | MIC Enterococcus faecium (GC 2243) (Enterococcus sp.; Enterococcus faecium (GC 2243)): >64 µg/mL | MIC Enterococcus faecium (GC 4556) (Enterococcus sp.; Enterococcus faecium (GC 4556)): >64 µg/mL | MIC Enterococcus faecium (GC 4557) (Enterococcus sp.; Enterococcus faecium (GC 4557)): 16 µg/mL | MIC Enterococcus faecalis (ATCC 29212) (Enterococcus sp.; [23]): >64 µg/mL | MIC Enterococcus faecalis (GC 2242) (Enterococcus sp.; broth dilution, strain GC 2242): >64 µg/mL | MIC Enterococcus faecium (GC 2243) (Enterococcus sp.; broth dilution, strain GC 2243): >64 µg/mL | MIC Enterococcus faecalis (GC 4552) (Enterococcus sp.; broth dilution, strain GC 4552): >64 µg/mL | MIC Enterococcus faecalis (GC 4553) (Enterococcus sp.; broth dilution, strain GC 4553): >64 µg/mL | MIC Enterococcus faecalis (GC 4554) (Enterococcus sp.; broth dilution, strain GC 4554): >64 µg/mL | MIC Enterococcus faecium (GC 4556) (Enterococcus sp.; broth dilution, strain GC 4556): >64 µg/mL | MIC Enterococcus faecium (GC 4557) (Enterococcus sp.; broth dilution, strain GC 4557): 16 µg/mL | MIC Enterococcus avium (GC 4558) (Enterococcus sp.; broth dilution, strain GC 4558): >64 µg/mL

γ-O-[(Dodecylamino)carbonyl]-cyclo[glycyl-β-methylphenylalanyl-O-(4-O-hexopyranosylhexopyranosyl]tyrosyl-3-(2-iminoimidazolidin-4-yl)seryl-3-(3-hexopyranosyl-2-iminoimidazolidin-4-yl)serylseryl] [Example 254b]
MIC Streptococcus agalactiae (GC 4564) (Streptococcus sp.; [1]): <0.5 µg/mL | MIC Streptococcus pneumoniae (GC 4565) (Streptococcus sp.; [2]): <0.5 µg/mL | MIC Streptococcus pyogenes (ID-3187) (Streptococcus sp.; [3]): <0.5 µg/mL | MIC Streptococcus agalactiae (GC 4564) (Streptococcus sp.; broth dilution, strain GC 4564): <0.5 µg/mL | MIC Streptococcus pneumoniae (GC 4565) (Streptococcus sp.; broth dilution, strain GC 4565): <0.5 µg/mL | MIC Streptococcus pyogenes (ID-3187) (Streptococcus sp.; broth dilution, strain ID-3187): <0.5 µg/mL | MIC Escherichia coli (ATCC 25922) (Escherichia coli): 64 µg/mL | MIC Escherichia coli (GC 4559) (Escherichia coli): 64 µg/mL | MIC Escherichia coli (GC 4560) (Escherichia coli): 16 µg/mL | MIC Coagulase Negative Staphylococcus (GC 4547) (Staphylococcus sp.; [4]): 8 µg/mL | MIC Coagulase Negative Staphylococcus (GC 4548) (Staphylococcus sp.; [5]): 2 µg/mL | MIC Coagulase Negative Staphylococcus (GC 4549) (Staphylococcus sp.; [6]): 4 µg/mL | MIC Coagulase Negative Staphylococcus (GC 4551) (Staphylococcus sp.; [7]): 4 µg/mL | MIC Coagulase Negative Staphylococcus (ID-3941) (Staphylococcus sp.; [8]): 2 µg/mL | MIC Staphylococcus aureus (ATCC 29213) (Staphylococcus sp.; [9]): 8 µg/mL | MIC Staphylococcus aureus (GC 1131) (Staphylococcus sp.; [10]): 4 µg/mL | MIC Staphylococcus aureus (GC 4541) (Staphylococcus sp.; [11]): 4 µg/mL | MIC Staphylococcus aureus (GC 4542) (Staphylococcus sp.; [12]): 8 µg/mL | MIC Staphylococcus aureus (GC 4544) (Staphylococcus sp.; [13]): 8 µg/mL | MIC Staphylococcus aureus (GC 4545) (Staphylococcus sp.; [14]): 8 µg/mL | MIC Staphylococcus aureus-SMITH (GC 4543) (Staphylococcus sp.; [15]): 4 µg/mL | MIC Staphylococcus haemolyticus (GC 4546) (Staphylococcus sp.; [16]): 8 µg/mL | MIC Staphylococcus aureus (ATCC 29213) (Staphylococcus sp.; [17]): 8 µg/mL | MIC Staphylococcus aureus (GC 1131) (Staphylococcus sp.; broth dilution, strain GC 1131): 4 µg/mL | MIC Staphylococcus aureus (GC 4541) (Staphylococcus sp.; broth dilution, strain GC 4541): 4 µg/mL | MIC Staphylococcus aureus (GC 4542) (Staphylococcus sp.; broth dilution, strain GC 4542): 8 µg/mL | MIC Staphylococcus aureus-SMITH (GC 4543) (Staphylococcus sp.; broth dilution, strain GC 4543): 4 µg/mL | MIC Staphylococcus aureus (GC 4544) (Staphylococcus sp.; broth dilution, strain GC 4544): 8 µg/mL | MIC Staphylococcus aureus (GC 4545) (Staphylococcus sp.; broth dilution, strain GC 4545): 8 µg/mL | MIC Staphylococcus haemolyticus (GC 4546) (Staphylococcus sp.; broth dilution, strain GC 4546): 8 µg/mL | MIC Coagulase Negative Staphylococcus (GC 4547) (Staphylococcus sp.; broth dilution, strain GC 4547): 8 µg/mL | MIC Coagulase Negative Staphylococcus (GC 4548) (Staphylococcus sp.; broth dilution, strain GC 4548): 2 µg/mL | MIC Coagulase Negative Staphylococcus (GC 4549) (Staphylococcus sp.; broth dilution, strain GC 4549): 4 µg/mL | MIC Coagulase Negative Staphylococcus (GC 4551) (Staphylococcus sp.; broth dilution, strain GC 4551): 4 µg/mL | MIC Coagulase Negative Staphylococcus (ID-3941) (Staphylococcus sp.; broth dilution, strain ID-3941): 2 µg/mL | MIC Enterococcus avium (GC 4558) (Enterococcus sp.; Enterococcus avium (GC 4558)): 4 µg/mL | MIC Enterococcus faecalis (ATCC 29212) (Enterococcus sp.; [18]): 8 µg/mL | MIC Enterococcus faecalis (GC 2242) (Enterococcus sp.; [19]): 8 µg/mL | MIC Enterococcus faecalis (GC 4552) (Enterococcus sp.; [20]): 8 µg/mL | MIC Enterococcus faecalis (GC 4553) (Enterococcus sp.; [21]): 4 µg/mL | MIC Enterococcus faecalis (GC 4554) (Enterococcus sp.; [22]): 4 µg/mL | MIC Enterococcus faecium (GC 2243) (Enterococcus sp.; Enterococcus faecium (GC 2243)): 4 µg/mL | MIC Enterococcus faecium (GC 4556) (Enterococcus sp.; Enterococcus faecium (GC 4556)): 8 µg/mL | MIC Enterococcus faecium (GC 4557) (Enterococcus sp.; Enterococcus faecium (GC 4557)): 8 µg/mL | MIC Enterococcus faecalis (ATCC 29212) (Enterococcus sp.; [23]): 8 µg/mL | MIC Enterococcus faecalis (GC 2242) (Enterococcus sp.; broth dilution, strain GC 2242): 8 µg/mL | MIC Enterococcus faecium (GC 2243) (Enterococcus sp.; broth dilution, strain GC 2243): 4 µg/mL | MIC Enterococcus faecalis (GC 4552) (Enterococcus sp.; broth dilution, strain GC 4552): 8 µg/mL | MIC Enterococcus faecalis (GC 4553) (Enterococcus sp.; broth dilution, strain GC 4553): 4 µg/mL | MIC Enterococcus faecalis (GC 4554) (Enterococcus sp.; broth dilution, strain GC 4554): 4 µg/mL | MIC Enterococcus faecium (GC 4556) (Enterococcus sp.; broth dilution, strain GC 4556): 8 µg/mL | MIC Enterococcus faecium (GC 4557) (Enterococcus sp.; broth dilution, strain GC 4557): 8 µg/mL | MIC Enterococcus avium (GC 4558) (Enterococcus sp.; broth dilution, strain GC 4558): 4 µg/mL
